The text below walks through data of US8846909B2, “Bicyclic heteroaryl kinase inhibitors and methods of use” (University of Rochester, priority 2010, dated 2014).

For orientation: IC50 means the midpoint of a concentration-inhibition curve.

For one series, the target named is T1, MLK3 (Homo sapiens, UniProt Q16584).
T1 construct: purchased Dundee DU8313
T1 sequence (Q16584 whole entry): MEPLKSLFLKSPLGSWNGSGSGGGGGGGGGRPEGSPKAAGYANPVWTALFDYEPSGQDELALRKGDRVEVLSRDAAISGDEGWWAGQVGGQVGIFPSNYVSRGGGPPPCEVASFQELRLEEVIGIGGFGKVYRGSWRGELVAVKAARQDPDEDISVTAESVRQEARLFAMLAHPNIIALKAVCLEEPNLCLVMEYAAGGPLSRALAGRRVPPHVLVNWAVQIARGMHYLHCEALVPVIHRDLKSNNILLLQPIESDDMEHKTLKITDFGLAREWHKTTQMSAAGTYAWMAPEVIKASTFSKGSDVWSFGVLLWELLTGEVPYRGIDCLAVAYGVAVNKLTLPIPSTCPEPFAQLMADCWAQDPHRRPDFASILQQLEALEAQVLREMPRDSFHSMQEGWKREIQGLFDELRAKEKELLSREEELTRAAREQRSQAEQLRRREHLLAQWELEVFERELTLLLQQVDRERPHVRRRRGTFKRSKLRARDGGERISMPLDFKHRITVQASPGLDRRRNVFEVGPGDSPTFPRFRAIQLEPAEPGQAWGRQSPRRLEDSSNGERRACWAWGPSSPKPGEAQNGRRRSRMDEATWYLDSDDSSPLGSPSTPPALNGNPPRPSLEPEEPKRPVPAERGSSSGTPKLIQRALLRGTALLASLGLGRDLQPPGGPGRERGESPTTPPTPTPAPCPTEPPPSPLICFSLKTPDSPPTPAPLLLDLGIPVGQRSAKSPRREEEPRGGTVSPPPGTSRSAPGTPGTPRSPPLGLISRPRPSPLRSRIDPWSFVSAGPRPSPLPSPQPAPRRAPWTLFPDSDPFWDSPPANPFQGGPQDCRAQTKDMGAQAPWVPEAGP
In words: Radiometric filter plate MLK3 assay. For MK3 IC50: 2 µM cold ATP (Km). Type of series: biochemical.
Settings: not given
The protocol:
After a twenty minute incubation, the reactions were washed through filter plates and read on a scintillation counter. Results are shown in Table 10 below, in which +++ indicates ≦0.1 μM, ++ indicates >0.1 μM and ≦1 μM, and + indicates >1 μM.
On to `CC(C)OC(=O)N1CCN(Cc2ccc(-c3cnc4[nH]cc(-c5ccc6[nH]ccc6c5)c4c3)cc2)CC1` [Example 185], for which the concentration for half-maximal inhibition (IC50) lay in the range of 100 to 1000 nM.

The series is the same for the next values; noted with them: read-out: MK3 IC50.
Turning to `Nc1ccc(-c2cnc3[nH]cc(-c4ccc5[nH]ccc5c4)c3c2)cn1` [Example 4, 5-(3-(1H-indol-5-yl)-1H-pyrrolo[2,3-b]pyridin-5-yl)pyridin-2-amine], the IC50 was below 100 nM.

On to `Nc1ncc(-c2cnc3[nH]cc(-c4ccc5[nH]ccc5c4)c3c2)cn1` [Example 9, 5-(3-(1H-indol-5-yl)-1H-pyrrolo[2,3-b]pyridin-5-yl)pyrimidin-2-amine], for which the IC50 was below 100 nM.

Turning to `COc1cc(-c2cnc3[nH]cc(-c4cnc(N)nc4)c3c2)cc(OC)c1OC` [Example 17, 5-(5-(3,4,5-trimethoxyphenyl)-1H-pyrrolo[2,3-b]pyridin-3-yl)pyrimidin-2-amine], the IC50 is below 100 nM.

On to `COc1cc(-c2cnc3[nH]cc(-c4ccc(N)nc4)c3c2)cc(OC)c1OC` [Example 18, 5-(5-(3,4,5-trimethoxyphenyl)-1H-pyrrolo[2,3-b]pyridin-3-yl)pyridin-2-amine], for which the IC50 is below 100 nM.

For the compound `CC(C)(C)OC(=O)N1CCN(C(=O)c2cccc(-c3cnc4[nH]cc(-c5ccc(C(N)=O)cc5)c4c3)c2)CC1` [Example 151, 4-{3-[3-(4-carbamoyl-phenyl)-1H-pyrrolo[2,3-b]pyridin-5-yl]-benzoyl}-piperazine-1-carboxylic acid tert-butyl ester], the concentration for half-maximal inhibition (IC50) is below 100 nM.

For `COc1cc(-c2cc3c(-c4ccc(C(N)=O)cc4)c[nH]c3[n+]([O-])c2)cc(OC)c1OC` [Example 154, 4-[7-oxy-5-(3,4,5-trimethoxy-phenyl)-1H-pyrrolo[2,3-b]pyridin-3-yl]benzamide], the IC50 lay within 100 to 1000 nM.

Regarding `CN1CCN(Cc2cccc(-c3cnc4[nH]cc(-c5ccc(C(N)=O)cc5)c4c3)c2)CC1` [Example 156, 4-{5-[3-(4-methyl-piperazin-1-ylmethyl)-phenyl]-1H-pyrrolo[2,3-b]pyridin-3-yl}-benzamide], the IC50 is below 100 nM.

For the compound `CC(=O)N1CCN(Cc2ccc(-c3cnc4[nH]cc(-c5ccc(C(N)=O)cc5)c4c3)cc2)CC1` [Example 157, 4-{5-[4-(4-acetyl-piperazin-1-ylmethyl)-phenyl]-1H-pyrrolo[2,3-b]pyridin-3-yl}-benzamide], the IC50 is below 100 nM.

Regarding `CN1CCN(Cc2ccc(-c3cnc4[nH]cc(-c5ccc(C(N)=O)cc5)c4c3)cc2)CC1=O` [Example 158, 4-{5-[4-(4-methyl-3-oxo-piperazin-1-ylmethyl)-phenyl]-1H-pyrrolo[2,3-b]pyridin-3-yl}-benzamide], the IC50 was below 100 nM.

For `CN1CCN(Cc2ccc(-c3c[nH]c4ncc(-c5ccc(C(N)=O)cc5)cc34)cc2)CC1` [Example 162, 4-{3-[4-(4-methyl-piperazin-1-ylmethyl)-phenyl]-1H-pyrrolo[2,3-b]pyridin-5-yl}-benzamide], the half-inhibitory concentration (IC50) was below 100 nM.

Consider `CN1CCN(Cc2ccc(-c3c[nH]c4ncc(-c5ccc6[nH]ccc6c5)cc34)cc2)CC1` [Example 163, 5-(1H-indol-5-yl)-3-[4-(4-methyl-piperazin-1-ylmethyl)-phenyl]-1H-pyrrolo[2,3-b]pyridine], for which the half-inhibitory concentration (IC50) was above 1000 nM.

Take `CNC(=O)c1ccc(-c2c[nH]c3ncc(-c4ccc(CN5CCN(C)CC5)cc4)cc23)cc1` [Example 165, N-methyl-4-{5-[4-(4-methyl-piperazin-1-ylmethyl)-phenyl]-1H-pyrrolo[2,3-b]pyridin-3-yl}-benzamide]: the IC50 is below 100 nM.

As to `c1cc2cc(-c3c[nH]c4ncc(-c5ccc(CN6CCOCC6)cc5)cc34)ccc2[nH]1` [Example 169, 4-(4-(3-(1H-indol-5-yl)-1H-pyrrolo[2,3-b]pyridin-5-yl)benzyl)morpholine], the half-maximal inhibitory concentration (IC50) was below 100 nM.

Regarding `CN1CCN(Cc2ccc(-c3cnc4[nH]cc(-c5ccc(F)cc5)c4c3)cc2)CC1` [Example 170], the IC50 is above 1000 nM.

`CN1CCN(Cc2ccc(-c3cnc4[nH]cc(-c5ccc(C(F)(F)F)cc5)c4c3)cc2)CC1` [Example 171]: the half-inhibitory concentration (IC50) was above 1000 nM.

In the case of `c1ccc(CN2CCN(Cc3ccc(-c4cnc5[nH]cc(-c6ccc7[nH]ccc7c6)c5c4)cc3)CC2)cc1` [Example 178], the IC50 lay within 100 to 1000 nM.

`CC(C)(C)CC(=O)N1CCN(Cc2ccc(-c3cnc4[nH]cc(-c5ccc6[nH]ccc6c5)c4c3)cc2)CC1` [Example 182]: the IC50 was below 100 nM.

With `CCOC(=O)N1CCN(Cc2ccc(-c3cnc4[nH]cc(-c5ccc6[nH]ccc6c5)c4c3)cc2)CC1` [Example 183], the IC50 was below 100 nM.

Take `COC(=O)N1CCN(Cc2ccc(-c3cnc4[nH]cc(-c5ccc6[nH]ccc6c5)c4c3)cc2)CC1` [Example 184]: the half-maximal inhibitory concentration (IC50) is below 100 nM.

For the compound `CC(C)C(=O)N1CCN(Cc2ccc(-c3cnc4[nH]cc(-c5ccc6[nH]ccc6c5)c4c3)cc2)CC1` [Example 186], the half-maximal inhibitory concentration (IC50) was below 100 nM.

For the compound `CCC(=O)N1CCN(Cc2ccc(-c3cnc4[nH]cc(-c5ccc6[nH]ccc6c5)c4c3)cc2)CC1` [Example 187], the IC50 was below 100 nM.

For `COCC(=O)N1CCN(Cc2ccc(-c3cnc4[nH]cc(-c5ccc6[nH]ccc6c5)c4c3)cc2)CC1` [Example 188], the IC50 was below 100 nM.

As to `CCS(=O)(=O)N1CCN(Cc2ccc(-c3cnc4[nH]cc(-c5ccc6[nH]ccc6c5)c4c3)cc2)CC1` [Example 189], the half-maximal inhibitory concentration (IC50) is below 100 nM.

Regarding `CS(=O)(=O)N1CCN(Cc2ccc(-c3cnc4[nH]cc(-c5ccc6[nH]ccc6c5)c4c3)cc2)CC1` [Example 190], the IC50 was below 100 nM.

On to `O=C(CCO)N1CCN(Cc2ccc(-c3cnc4[nH]cc(-c5ccc6[nH]ccc6c5)c4c3)cc2)CC1` [Example 191], for which the half-inhibitory concentration (IC50) is below 100 nM.

Turning to `COCCC(=O)N1CCN(Cc2ccc(-c3cnc4[nH]cc(-c5ccc6[nH]ccc6c5)c4c3)cc2)CC1` [Example 192], the IC50 was below 100 nM.

In the case of `O=C(CC1CC1)N1CCN(Cc2ccc(-c3cnc4[nH]cc(-c5ccc6[nH]ccc6c5)c4c3)cc2)CC1` [Example 193], the IC50 is below 100 nM.

On to `CC(C)CC(=O)N1CCN(Cc2ccc(-c3cnc4[nH]cc(-c5ccc6[nH]ccc6c5)c4c3)cc2)CC1` [Example 194], for which the 50% inhibitory concentration (IC50) is below 100 nM.

In the case of `O=C1CCC(C(=O)N2CCN(Cc3ccc(-c4cnc5[nH]cc(-c6ccc7[nH]ccc7c6)c5c4)cc3)CC2)N1` (stereo not shown) [Example 195], the IC50 was below 100 nM.

For the compound `CC(=O)N1CCN(Cc2ccc(-c3cnc4[nH]cc(-c5ccc6[nH]ccc6c5)c4c3)cc2)CC1C` (stereo not shown) [Example 197, 1-(4-(4-(3-(1H-indol-5-yl)-1H-pyrrolo[2,3-b]pyridin-5-yl)benzyl)-2-methylpiperazin-1-yl)ethanone], the half-maximal inhibitory concentration (IC50) is below 100 nM.

Consider `CC1CN(Cc2ccc(-c3cnc4[nH]cc(-c5ccc6[nH]ccc6c5)c4c3)cc2)CCN1C` (stereo not shown) [Example 198, 5-(4-((3,4-dimethylpiperazin-1-yl)methyl)phenyl)-3-(1H-indol-5-yl)-1H-pyrrolo[2,3-b]pyridine], for which the IC50 is below 100 nM.

With `c1cn(Cc2ccc(-c3cnc4[nH]cc(-c5ccc6[nH]ccc6c5)c4c3)cc2)cn1` [Example 199, 5-(4-((1H-imidazol-1-yl)methyl)phenyl)-3-(1H-indol-5-yl)-1H-pyrrolo[2,3-b]pyridine], the half-inhibitory concentration (IC50) is below 100 nM.

Turning to `CN1CCN(Cc2ccc(-c3cnc4[nH]cc(-c5ccc6nccc(O)c6c5)c4c3)cc2)CC1` [Example 200], the IC50 was below 100 nM.

Consider `CN1CCN(Cc2ccc(-c3cnc4[nH]cc(-c5cnc6[nH]ccc6c5)c4c3)cc2)CC1` [Example 202], for which the IC50 was below 100 nM.

As to `CN1CCN(Cc2ccc(-c3cnc4[nH]cc(-c5ccc6ncccc6c5)c4c3)cc2)CC1` [Example 203], the IC50 was below 100 nM.

For the compound `[2H]c1cc2cc(-c3c[nH]c4ncc(-c5ccc(CN6CCN(C)CC6)cc5)cc34)ccc2[nH]1` [Example 206], the half-maximal inhibitory concentration (IC50) was below 100 nM.

Test system in another series: not listed separately
Put plainly: Pharmacokinetic evaluation in mice (plasma and brain AUC). Type of series: in vivo. Further details: unit not given here. Conditions: CL57 BL/6 mice, single IV injection 10 mg/kg, brain homogenate. The protocol:
Several compounds disclosed herein were evaluated in a standard murine pharmacokinetic model. […] Three mice in each group were used for blood and brain collection at each time point. […] The brain of each animal was collected after the final blood collection. The whole tissue was harvested, excised and rinsed by saline, dried by filter paper, and then placed into one tube per tissue per animal. All samples were stored at −20° C. until bioanalysis. Compound concentrations in plasma and brain homogenate were determined using a high performance liquid chromatography/mass spectrometry (HPLC/MS/MS) method (Agilent 1100 series HPLC, AB Inc. API4000 triple-quadrupole with an ESI interface and Analyst 1.4 software). Results in the form of area under the time-versus-concentration curve (AUC) are given below in Table 11.
For `COc1cc(-c2cnc3[nH]cc(-c4ccc5[nH]ccc5c4)c3c2)cc(OC)c1OC` [Example 1, 3-(1H-indol-5-yl)-5-(3,4,5-trimethoxyphenyl)-1H-pyrrolo[2,3-b]pyridine], the “AUC Brain” value was “+ (+ indicates ≧500)”.

For the compound `Nc1ccc(-c2cnc3[nH]cc(-c4ccc5[nH]ccc5c4)c3c2)cn1` [Example 4, 5-(3-(1H-indol-5-yl)-1H-pyrrolo[2,3-b]pyridin-5-yl)pyridin-2-amine], the “AUC Brain” value was “− (− indicates <500)”.

With `Nc1ncc(-c2cnc3[nH]cc(-c4ccc5[nH]ccc5c4)c3c2)cn1` [Example 9, 5-(3-(1H-indol-5-yl)-1H-pyrrolo[2,3-b]pyridin-5-yl)pyrimidin-2-amine], the “AUC Brain” value was “+ (+ indicates ≧500)”.

As for `COc1cc(-c2cnc3[nH]cc(-c4cnc(N)nc4)c3c2)cc(OC)c1OC` [Example 17, 5-(5-(3,4,5-trimethoxyphenyl)-1H-pyrrolo[2,3-b]pyridin-3-yl)pyrimidin-2-amine], the “AUC Brain” value is listed as “− (− indicates <500)”.

`COc1cc(-c2cnc3[nH]cc(-c4ccc(N)nc4)c3c2)cc(OC)c1OC` [Example 18, 5-(5-(3,4,5-trimethoxyphenyl)-1H-pyrrolo[2,3-b]pyridin-3-yl)pyridin-2-amine]: the “AUC Brain” value was “− (− indicates <500)”.

For `CN1CCN(Cc2ccc(-c3cnc4[nH]cc(-c5ccc6[nH]ccc6c5)c4c3)cc2)CC1` [Example 32, 3-(1H-indol-5-yl)-5-(4-((4-methylpiperazin-1-yl)methyl)phenyl)-1H-pyrrolo[2,3-b]pyridine], the “AUC Brain” value is “+ (+ indicates ≧500)”.

The test system of another series is primary rat hippocampal neurons and dorsal root ganglion neurons.
Assay: not given
Particulars: cited from earlier work.
Consider `CCSCc1ccc2c(c1)c1c3c(c4c5cc(CSCC)ccc5n5c4c1n2[C@H]1C[C@](O)(C(=O)OC)[C@]5(C)O1)CNC3=O` [CEP1347], for which the “protection of neurons from lethal effects of HIV-1 gp120” value is reported as “can protect”.

The target of another series is T2, MLK3 (Rattus norvegicus, UniProt Q66HA1).
T2 construct: autophosphorylation of MLK3 in primary rat neurons; endogenous in cells; host or cells: primary rat neurons
T2 sequence (Q66HA1 whole entry): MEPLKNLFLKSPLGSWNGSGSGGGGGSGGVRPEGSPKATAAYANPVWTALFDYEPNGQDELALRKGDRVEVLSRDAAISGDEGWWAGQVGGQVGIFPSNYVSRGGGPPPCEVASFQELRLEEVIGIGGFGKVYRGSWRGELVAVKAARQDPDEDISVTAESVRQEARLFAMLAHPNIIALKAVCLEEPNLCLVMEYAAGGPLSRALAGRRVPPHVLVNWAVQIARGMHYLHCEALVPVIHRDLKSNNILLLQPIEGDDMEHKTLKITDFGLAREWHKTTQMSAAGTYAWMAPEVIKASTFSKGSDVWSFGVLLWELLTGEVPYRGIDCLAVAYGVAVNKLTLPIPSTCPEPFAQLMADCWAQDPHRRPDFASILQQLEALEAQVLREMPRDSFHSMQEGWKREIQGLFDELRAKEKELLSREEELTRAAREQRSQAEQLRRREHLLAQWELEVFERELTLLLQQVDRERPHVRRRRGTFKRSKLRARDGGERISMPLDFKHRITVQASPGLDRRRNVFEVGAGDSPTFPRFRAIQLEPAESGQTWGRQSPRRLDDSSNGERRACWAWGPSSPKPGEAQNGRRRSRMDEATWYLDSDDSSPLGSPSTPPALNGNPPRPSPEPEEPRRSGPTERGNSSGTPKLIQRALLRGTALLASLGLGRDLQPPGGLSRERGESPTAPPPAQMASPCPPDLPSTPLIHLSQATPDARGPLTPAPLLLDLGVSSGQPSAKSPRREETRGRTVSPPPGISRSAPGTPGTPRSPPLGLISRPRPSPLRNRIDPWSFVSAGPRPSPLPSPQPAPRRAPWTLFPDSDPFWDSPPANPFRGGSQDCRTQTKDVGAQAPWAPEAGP
Assay: not given
Particulars: primary rat neurons; cited from earlier work.
As to `CCSCc1ccc2c(c1)c1c3c(c4c5cc(CSCC)ccc5n5c4c1n2[C@H]1C[C@](O)(C(=O)OC)[C@]5(C)O1)CNC3=O` [CEP1347], the “Tat and gp120 induced autophosphorylation of MLK3” value is recorded as “abolished”.

The subject of the next series is in vivo model of HIV-1 infection.
Assay: not given
Particulars: reversing microglial activation, restoring normal synaptic architecture; cited from earlier work.
Turning to `CCSCc1ccc2c(c1)c1c3c(c4c5cc(CSCC)ccc5n5c4c1n2[C@H]1C[C@](O)(C(=O)OC)[C@]5(C)O1)CNC3=O` [CEP1347], the “neuroprotection in in vivo model of HIV-1 infection” value is “neuroprotective”.
